Laboratory results as given in PMC4279382, “Antitumor activity of S116836, a novel tyrosine kinase inhibitor, against imatinib-resistant FIP1L1-PDGFRα-expressing cells” (Oncotarget, 2014).

Experiments:
Test in all cases: KINOMEscan competition binding, single concentration
Conditions in all cases: read-out: % Ctrl @ 100nM
PDGFRβ = molecular target: T1, PDGFRβ (Homo sapiens, UniProt P09619)
T1 construct: gene PDGFRB; KINOMEscan (Ambit) panel kinase
Text: KINOMEscan competition binding, single concentration on PDGFRβ

LCK = molecular target: T2, LCK (Homo sapiens, UniProt P06239)
T2 construct: KINOMEscan (Ambit) panel kinase
Text: KINOMEscan competition binding, single concentration on LCK

TIE2 = molecular target: T3, TIE2 (Homo sapiens, UniProt Q02763)
T3 construct: gene TEK; KINOMEscan (Ambit) panel kinase
Text: KINOMEscan competition binding, single concentration on TIE2

PLK1 = molecular target: T4, PLK1 (Homo sapiens, UniProt P53350)
T4 construct: KINOMEscan (Ambit) panel kinase
Text: KINOMEscan competition binding, single concentration on PLK1

LYN = molecular target: T5, LYN (Homo sapiens, UniProt P07948)
T5 construct: KINOMEscan (Ambit) panel kinase
Text: KINOMEscan competition binding, single concentration on LYN

SRC = molecular target: T6, SRC (Homo sapiens, UniProt P12931)
T6 construct: KINOMEscan (Ambit) panel kinase
Text: KINOMEscan competition binding, single concentration on SRC

ABL1-nonphosphorylated [1] = molecular target: T7, ABL1-nonphosphorylated (Homo sapiens, UniProt P00519, T315I)
T7 construct: KINOMEscan (Ambit) panel kinase, nonphosphorylated form
Text: (§1) KINOMEscan competition binding, single concentration on ABL1-nonphosphorylated

ABL1-nonphosphorylated [2] = molecular target: T8, ABL1-nonphosphorylated (Homo sapiens, UniProt P00519)
T8 construct: KINOMEscan (Ambit) panel kinase, nonphosphorylated form
Text: as §1

KIT = molecular target: T9, KIT (Homo sapiens, UniProt P10721)
T9 construct: KINOMEscan (Ambit) panel kinase
Text: KINOMEscan competition binding, single concentration on KIT

HCK = molecular target: T10, HCK (Homo sapiens, UniProt P08631)
T10 construct: KINOMEscan (Ambit) panel kinase
Text: KINOMEscan competition binding, single concentration on HCK

PDGFRα = molecular target: T11, PDGFRα (Homo sapiens, UniProt P16234)
T11 construct: gene PDGFRA; KINOMEscan (Ambit) panel kinase
Text: KINOMEscan competition binding, single concentration on PDGFRα

BLK = molecular target: T12, BLK (Homo sapiens, UniProt P51451)
T12 construct: KINOMEscan (Ambit) panel kinase
Text: KINOMEscan competition binding, single concentration on BLK

FLT3 = molecular target: T13, FLT3 (Homo sapiens, UniProt P36888)
T13 construct: KINOMEscan (Ambit) panel kinase
T13 sequence (P36888 27-993): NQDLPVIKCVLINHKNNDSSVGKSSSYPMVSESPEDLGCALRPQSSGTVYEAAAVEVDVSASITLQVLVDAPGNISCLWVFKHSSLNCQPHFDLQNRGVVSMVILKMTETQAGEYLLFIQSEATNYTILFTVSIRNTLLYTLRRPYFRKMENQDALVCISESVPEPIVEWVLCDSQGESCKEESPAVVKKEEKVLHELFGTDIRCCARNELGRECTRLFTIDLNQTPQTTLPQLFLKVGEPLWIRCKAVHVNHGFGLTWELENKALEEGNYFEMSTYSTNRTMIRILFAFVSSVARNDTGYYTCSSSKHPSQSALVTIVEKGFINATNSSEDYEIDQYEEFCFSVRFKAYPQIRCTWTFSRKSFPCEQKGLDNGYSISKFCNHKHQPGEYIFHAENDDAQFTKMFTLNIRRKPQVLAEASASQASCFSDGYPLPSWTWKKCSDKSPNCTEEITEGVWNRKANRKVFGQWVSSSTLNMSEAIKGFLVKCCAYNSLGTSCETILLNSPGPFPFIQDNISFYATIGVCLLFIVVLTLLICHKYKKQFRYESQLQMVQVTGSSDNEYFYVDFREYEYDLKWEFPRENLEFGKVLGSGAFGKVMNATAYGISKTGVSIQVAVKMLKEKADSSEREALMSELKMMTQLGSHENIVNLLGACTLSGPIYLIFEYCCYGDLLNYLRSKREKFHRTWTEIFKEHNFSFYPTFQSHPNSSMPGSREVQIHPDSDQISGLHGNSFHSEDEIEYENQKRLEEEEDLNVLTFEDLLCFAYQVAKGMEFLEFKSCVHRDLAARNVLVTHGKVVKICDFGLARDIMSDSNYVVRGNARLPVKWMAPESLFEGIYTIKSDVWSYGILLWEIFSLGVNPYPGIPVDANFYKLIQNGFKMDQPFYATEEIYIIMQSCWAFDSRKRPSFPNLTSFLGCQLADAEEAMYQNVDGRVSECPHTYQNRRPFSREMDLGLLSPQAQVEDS
Text: KINOMEscan competition binding, single concentration on FLT3

CDK2 = molecular target: T14, CDK2 (Homo sapiens, UniProt P24941)
T14 construct: KINOMEscan (Ambit) panel kinase; no cyclin named
Text: KINOMEscan competition binding, single concentration on CDK2

T10 sequence (P08631 2-526): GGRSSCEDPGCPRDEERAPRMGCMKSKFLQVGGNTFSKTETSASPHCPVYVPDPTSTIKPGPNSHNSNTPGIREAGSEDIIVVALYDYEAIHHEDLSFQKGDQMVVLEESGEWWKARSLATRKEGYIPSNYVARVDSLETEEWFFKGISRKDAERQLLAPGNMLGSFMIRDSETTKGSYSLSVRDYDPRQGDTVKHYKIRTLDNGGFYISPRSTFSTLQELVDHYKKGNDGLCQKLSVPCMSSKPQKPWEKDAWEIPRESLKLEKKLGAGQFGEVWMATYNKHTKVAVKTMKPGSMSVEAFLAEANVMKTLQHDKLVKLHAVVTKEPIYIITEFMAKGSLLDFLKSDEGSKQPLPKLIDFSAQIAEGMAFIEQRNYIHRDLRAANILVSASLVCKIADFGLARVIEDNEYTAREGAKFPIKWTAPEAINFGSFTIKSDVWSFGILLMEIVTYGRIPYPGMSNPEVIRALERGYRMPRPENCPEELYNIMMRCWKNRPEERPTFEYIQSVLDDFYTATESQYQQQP
T9 sequence (P10721 26-976): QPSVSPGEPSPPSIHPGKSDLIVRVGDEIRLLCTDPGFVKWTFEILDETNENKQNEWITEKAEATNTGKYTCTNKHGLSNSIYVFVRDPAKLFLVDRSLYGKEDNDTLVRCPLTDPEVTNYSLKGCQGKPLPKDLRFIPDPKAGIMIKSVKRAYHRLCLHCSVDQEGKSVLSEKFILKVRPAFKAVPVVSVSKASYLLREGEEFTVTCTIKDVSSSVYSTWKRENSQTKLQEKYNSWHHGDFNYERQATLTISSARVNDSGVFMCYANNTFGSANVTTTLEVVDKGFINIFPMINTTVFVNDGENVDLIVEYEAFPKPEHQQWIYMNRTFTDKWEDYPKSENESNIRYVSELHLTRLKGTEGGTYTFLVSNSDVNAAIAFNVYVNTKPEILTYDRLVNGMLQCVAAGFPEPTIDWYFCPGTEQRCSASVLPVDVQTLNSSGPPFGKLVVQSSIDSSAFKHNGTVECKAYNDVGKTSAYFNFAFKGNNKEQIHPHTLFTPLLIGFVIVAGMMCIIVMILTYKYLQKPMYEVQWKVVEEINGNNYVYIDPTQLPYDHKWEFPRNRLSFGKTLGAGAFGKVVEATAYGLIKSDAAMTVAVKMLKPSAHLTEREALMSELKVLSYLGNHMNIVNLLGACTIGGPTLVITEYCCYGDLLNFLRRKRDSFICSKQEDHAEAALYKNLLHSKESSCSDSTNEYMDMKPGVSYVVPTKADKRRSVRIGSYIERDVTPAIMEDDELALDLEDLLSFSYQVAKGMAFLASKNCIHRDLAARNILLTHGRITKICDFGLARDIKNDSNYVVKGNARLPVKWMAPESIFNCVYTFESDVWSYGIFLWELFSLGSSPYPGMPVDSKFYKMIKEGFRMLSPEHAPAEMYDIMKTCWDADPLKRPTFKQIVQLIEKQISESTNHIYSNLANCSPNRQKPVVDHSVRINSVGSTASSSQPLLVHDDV
T1 sequence (P09619 33-1106): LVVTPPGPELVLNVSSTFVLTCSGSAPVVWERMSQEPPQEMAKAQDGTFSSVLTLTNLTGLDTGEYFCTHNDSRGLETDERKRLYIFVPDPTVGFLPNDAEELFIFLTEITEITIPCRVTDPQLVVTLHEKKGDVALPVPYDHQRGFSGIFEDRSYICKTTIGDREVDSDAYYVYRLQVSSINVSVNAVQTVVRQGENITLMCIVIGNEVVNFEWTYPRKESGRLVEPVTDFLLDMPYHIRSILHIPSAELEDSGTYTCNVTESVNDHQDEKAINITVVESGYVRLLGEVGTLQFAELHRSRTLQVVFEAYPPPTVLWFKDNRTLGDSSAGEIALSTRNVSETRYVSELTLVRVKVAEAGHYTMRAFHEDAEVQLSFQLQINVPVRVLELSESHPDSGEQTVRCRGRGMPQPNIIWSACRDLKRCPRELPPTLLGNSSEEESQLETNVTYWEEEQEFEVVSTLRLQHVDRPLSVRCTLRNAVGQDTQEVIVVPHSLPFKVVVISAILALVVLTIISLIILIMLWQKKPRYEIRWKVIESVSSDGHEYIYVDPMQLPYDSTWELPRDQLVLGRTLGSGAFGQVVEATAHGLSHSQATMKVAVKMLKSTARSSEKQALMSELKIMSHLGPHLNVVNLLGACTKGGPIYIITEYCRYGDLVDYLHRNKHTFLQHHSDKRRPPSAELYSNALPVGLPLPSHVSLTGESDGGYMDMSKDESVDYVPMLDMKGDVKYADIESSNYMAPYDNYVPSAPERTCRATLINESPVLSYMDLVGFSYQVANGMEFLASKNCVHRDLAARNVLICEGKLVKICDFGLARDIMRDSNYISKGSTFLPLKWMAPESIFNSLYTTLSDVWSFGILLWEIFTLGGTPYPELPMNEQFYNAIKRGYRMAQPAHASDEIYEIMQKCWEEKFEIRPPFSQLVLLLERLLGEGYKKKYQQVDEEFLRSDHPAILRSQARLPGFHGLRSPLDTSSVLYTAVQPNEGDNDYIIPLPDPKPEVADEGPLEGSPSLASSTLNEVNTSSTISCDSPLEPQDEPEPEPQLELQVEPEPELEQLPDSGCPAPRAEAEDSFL
T4 sequence (P53350 2-603): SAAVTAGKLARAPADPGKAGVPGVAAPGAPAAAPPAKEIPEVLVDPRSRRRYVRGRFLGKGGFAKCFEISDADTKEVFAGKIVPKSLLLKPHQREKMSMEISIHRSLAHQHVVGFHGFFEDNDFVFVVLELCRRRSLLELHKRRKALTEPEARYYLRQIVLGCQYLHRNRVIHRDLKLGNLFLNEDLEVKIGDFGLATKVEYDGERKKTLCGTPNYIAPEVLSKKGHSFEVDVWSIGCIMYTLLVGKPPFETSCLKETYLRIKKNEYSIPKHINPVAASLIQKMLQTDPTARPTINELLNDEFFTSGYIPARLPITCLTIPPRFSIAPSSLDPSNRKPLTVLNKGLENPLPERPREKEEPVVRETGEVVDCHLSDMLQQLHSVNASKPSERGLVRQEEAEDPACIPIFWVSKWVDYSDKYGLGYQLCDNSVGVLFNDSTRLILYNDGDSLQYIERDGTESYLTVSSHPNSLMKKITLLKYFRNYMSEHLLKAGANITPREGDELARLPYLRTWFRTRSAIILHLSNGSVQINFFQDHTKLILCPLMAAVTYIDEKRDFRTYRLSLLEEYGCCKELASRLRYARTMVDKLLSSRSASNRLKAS
T5 sequence (P07948 2-512): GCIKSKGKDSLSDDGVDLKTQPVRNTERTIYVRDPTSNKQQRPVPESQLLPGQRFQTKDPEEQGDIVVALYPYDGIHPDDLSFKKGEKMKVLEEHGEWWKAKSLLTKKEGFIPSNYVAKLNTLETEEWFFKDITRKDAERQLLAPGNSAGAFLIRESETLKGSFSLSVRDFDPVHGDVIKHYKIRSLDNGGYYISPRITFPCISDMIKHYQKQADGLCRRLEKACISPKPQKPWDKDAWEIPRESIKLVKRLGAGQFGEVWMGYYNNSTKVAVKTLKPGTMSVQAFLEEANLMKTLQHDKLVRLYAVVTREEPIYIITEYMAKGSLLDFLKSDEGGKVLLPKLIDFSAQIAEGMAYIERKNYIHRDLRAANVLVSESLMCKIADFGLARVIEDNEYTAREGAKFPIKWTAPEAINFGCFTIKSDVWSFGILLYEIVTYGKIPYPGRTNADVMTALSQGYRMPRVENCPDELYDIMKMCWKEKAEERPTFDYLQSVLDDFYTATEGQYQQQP
T6 sequence (P12931 2-536): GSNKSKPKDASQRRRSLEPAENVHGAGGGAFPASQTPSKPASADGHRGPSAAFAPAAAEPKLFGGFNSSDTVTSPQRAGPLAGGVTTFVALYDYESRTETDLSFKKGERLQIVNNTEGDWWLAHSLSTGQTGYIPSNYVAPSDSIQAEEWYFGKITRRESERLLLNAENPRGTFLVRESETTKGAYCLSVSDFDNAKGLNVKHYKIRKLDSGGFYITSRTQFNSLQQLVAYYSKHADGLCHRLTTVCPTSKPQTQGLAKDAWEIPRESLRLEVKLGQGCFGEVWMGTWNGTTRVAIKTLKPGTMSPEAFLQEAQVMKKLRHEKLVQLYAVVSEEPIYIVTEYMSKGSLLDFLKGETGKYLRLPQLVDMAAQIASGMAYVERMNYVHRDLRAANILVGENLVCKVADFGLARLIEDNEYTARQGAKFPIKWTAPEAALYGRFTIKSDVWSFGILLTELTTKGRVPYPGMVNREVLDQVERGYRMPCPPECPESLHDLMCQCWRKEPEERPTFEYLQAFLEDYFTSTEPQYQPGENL
T12 sequence (P51451 2-505): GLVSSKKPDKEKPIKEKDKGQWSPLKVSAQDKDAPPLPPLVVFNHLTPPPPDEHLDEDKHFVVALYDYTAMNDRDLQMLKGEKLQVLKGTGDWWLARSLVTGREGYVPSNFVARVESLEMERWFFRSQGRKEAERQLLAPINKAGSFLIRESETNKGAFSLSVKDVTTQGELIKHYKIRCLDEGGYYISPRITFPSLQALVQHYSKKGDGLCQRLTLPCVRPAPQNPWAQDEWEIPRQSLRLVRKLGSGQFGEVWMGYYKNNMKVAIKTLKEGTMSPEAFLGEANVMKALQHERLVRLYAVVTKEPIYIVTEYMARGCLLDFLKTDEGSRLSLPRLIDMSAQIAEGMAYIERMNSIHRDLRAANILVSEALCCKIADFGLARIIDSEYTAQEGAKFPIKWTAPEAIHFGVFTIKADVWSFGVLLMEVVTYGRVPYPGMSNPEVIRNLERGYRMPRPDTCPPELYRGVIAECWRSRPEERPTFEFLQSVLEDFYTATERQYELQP

remaining binding at 0.1 µM (PDGFRβ): 3.3%
remaining binding at 0.1 µM (LCK): 3.4%
remaining binding at 0.1 µM (TIE2): 0.85%
remaining binding at 0.1 µM (PLK1): 100%
remaining binding at 0.1 µM (LYN): 16%
remaining binding at 0.1 µM (SRC): 33%
remaining binding at 0.1 µM (ABL1-nonphosphorylated [1]): 20%
remaining binding at 0.1 µM (ABL1-nonphosphorylated [2]): 18%
remaining binding at 0.1 µM (KIT): 6.8%
remaining binding at 0.1 µM (HCK): 6.2%
remaining binding at 0.1 µM (PDGFRα): 26%
remaining binding at 0.1 µM (BLK): 10%
remaining binding at 0.1 µM (FLT3): 1.8%
remaining binding at 0.1 µM (CDK2): 99%
Compound: Cc1ccc(C(=O)Nc2cc(-n3ccnc3)cc(C(F)(F)F)c2)cc1C#Cc1cnc(NC2CC2)nc1 [S116836]
